Results as given in US6875761B2 (Eisai Co., Ltd., priority 1997, dated 2005).
Where a name gives a salt, the structure may show the parent alone.

Assays:
serotonin 1A receptor = molecular target: T1, serotonin 1A receptor (Rattus norvegicus, UniProt P19327); test: Binding test on [3H] 8-hydroxy-dipropylaminotetralin, hippocampus receptor fraction; set-up: species or system SD rats; settings: rat hippocampus receptor fraction, 0.5 nM [3H] 8-OH-DPAT, room temperature 30 min; read-out: 5HT1
T1 construct: To the receptor fraction of the hippocampus were added a test compound and 0.5 nM of [^3H]; 8-hydroxy-dipropylaminotetralin; from tissue; host or cells: rat hippocampus membrane fraction
T1 sequence (P19327 1-422): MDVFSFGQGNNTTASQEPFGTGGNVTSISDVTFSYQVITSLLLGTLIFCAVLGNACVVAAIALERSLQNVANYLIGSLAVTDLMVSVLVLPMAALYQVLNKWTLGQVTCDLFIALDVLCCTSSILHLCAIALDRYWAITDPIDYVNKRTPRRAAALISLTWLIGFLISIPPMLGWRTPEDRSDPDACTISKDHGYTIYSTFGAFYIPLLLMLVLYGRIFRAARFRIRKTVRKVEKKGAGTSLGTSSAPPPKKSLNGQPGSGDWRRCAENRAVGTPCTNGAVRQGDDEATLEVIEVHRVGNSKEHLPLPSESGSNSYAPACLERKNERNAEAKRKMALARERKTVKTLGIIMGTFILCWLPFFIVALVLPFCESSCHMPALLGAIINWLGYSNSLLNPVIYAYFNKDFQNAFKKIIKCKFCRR

serotonin 2 receptor = molecular target: T2, serotonin 2 receptor (Rattus norvegicus, UniProt P14842); test: Binding test on [3H] ketanserin, cerebral cortex receptor fraction; set-up: species or system SD rats; settings: 0.3 nM [3H] ketanserin, 37° C. 15 min, read-out: 5HT2
T2 construct: To the receptor fraction of the cerebral cortex were added a test compound and 0.3 nM of [^3H] ketanserin; from tissue; host or cells: rat cerebral cortex membrane fraction
T2 sequence (P14842 whole entry): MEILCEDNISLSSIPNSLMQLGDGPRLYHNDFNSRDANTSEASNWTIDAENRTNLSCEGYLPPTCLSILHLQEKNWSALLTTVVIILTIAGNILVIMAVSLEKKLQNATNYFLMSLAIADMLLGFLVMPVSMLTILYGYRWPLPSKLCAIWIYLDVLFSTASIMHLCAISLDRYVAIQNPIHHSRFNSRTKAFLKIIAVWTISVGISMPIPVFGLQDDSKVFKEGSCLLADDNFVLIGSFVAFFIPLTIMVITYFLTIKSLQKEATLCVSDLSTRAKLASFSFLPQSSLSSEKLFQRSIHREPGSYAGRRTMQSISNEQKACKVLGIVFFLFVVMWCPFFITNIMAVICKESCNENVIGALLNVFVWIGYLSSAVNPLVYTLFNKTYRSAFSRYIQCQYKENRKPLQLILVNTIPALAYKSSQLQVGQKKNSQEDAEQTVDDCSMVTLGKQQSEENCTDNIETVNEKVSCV

Ki (serotonin 1A receptor) | Ki (serotonin 2 receptor) | SMILES
2.9 nM | 20.4 nM | CCN1CCN(c2nc(-c3ccc(CCCOC)cn3)cc3ccccc23)CC1 [Example 141, 1-(1-Ethylpiperazin-4-yl)-3-[5-(3-Methoxypropyl)Pyridin-2-yl]Isoquinoline Oxalate]
3.3 nM | 15.2 nM | CCOCCCc1ccc(-c2cc3ccccc3c(N3CCN(CC)CC3)n2)cn1 [Example 142, 1-(1-Ethylpiperazin-4-yl)-3-[2-(3-Ethoxypropyl)Pyridin-5-yl]Isoquinoline Oxalate]
2.2 nM | 17.4 nM | CCN1CCN(c2nc(-c3ccc(CCCOC(C)C)nc3)cc3ccccc23)CC1 [Example 143, 1-(1-Ethylpiperazin-4-yl)-3-[2-[3-(2-Propoxy)Propyl]Pyridin-5-yl]Isoquinoline Oxalate]
4.8 nM | 12.4 nM | CCN1CCN(c2nc(-c3ccc(CCC(C)OC)nc3)cc3ccccc23)CC1 (stereo not drawn) [Example 144, 1-(1-Ethylpiperazin-4-yl)-3-[2-(3-Methoxybutyl)Pyridin-5-yl]Isoquinoline Oxalate]
6.5 nM | 1.7 nM | CCN1CCN(c2nc(-c3ccc(N4CCOCC4)nc3)cc3ccccc23)CC1 [Example 147, 1-(4-ethylpiperazin-1-yl)-3-[2-(morpholin-4-yl)pyridin-5-yl]isoquinoline trihydrochloride]
6.33 nM | 7.85 nM | CCN1CCN(c2nc(-c3ccc(N4CCOCC4)cn3)cc3ccccc23)CC1 [Example 148, 1-(4-ethylpiperazin-1-yl)-3-[5-(morpholin-4-yl)pyridin-2-yl]isoquinoline trihydrochloride]
37.2 nM | 21.8 nM | CCN1CCN(c2nc(-c3ccc(N4C[C@@H](C)O[C@@H](C)C4)nc3)cc3ccccc23)CC1 [Example 149, 3-[2-(2,6-dimethylmorpholin-4-yl)pyridin-5-yl]-1-(4-ethylpiperazin-1-yl)isoquinoline trihydrochloride]
10.7 nM | 0.8 nM | CCN1CCN(c2nc(-c3ccc(N4CCSCC4)nc3)cc3ccccc23)CC1 [Example 150, 1-(4-ethylpiperazin-1-yl)-3-[2-(thiomorpholin-4-yl)pyridin-5-yl]isoquinoline trihydrochloride]

Further lines, the molecule ahead of its results:

SMILES | Ki (serotonin 1A receptor) | Ki (serotonin 2 receptor)
CCN1CCN(c2nc(-c3ccc(CCCO)nc3)cc3ccccc23)CC1 [Example 135, 1-(1-Ethylpiperazin-4-yl)-3-[2-(3-Hydroxypropyl)Pyridin-5-yl]Isoquinoline] | 3.4 nM | 18.9 nM
CCN1CCN(c2nc(-c3ccc(CCC(C)O)nc3)cc3ccccc23)CC1 (stereo not drawn) [Example 136, 1-(1-Ethylpiperazin-4-yl)-3-[2-(3-Hydroxybutyl)Pyridin-5-yl]Isoquinoline] | 3.7 nM | 11.6 nM
CCN1CCN(c2nc(-c3ccc(CCCCO)nc3)cc3ccccc23)CC1 [Example 137, 1-(1-Ethylpiperazin-4-yl)-3-[2-(4-Hydroxybutyl)Pyridin-5-yl]Isoquinoline] | 7.2 nM | 32.5 nM
CCN1CCN(c2nc(-c3ccc(CCC(C)(C)O)nc3)cc3ccccc23)CC1 [Example 138, 1-(1-Ethylpiperazin-4-yl)-3-[2-(3-Hydroxy-3-Methylbutyl)Pyridin-5-yl]Isoquinoline Oxalate] | 13.5 nM | 5.5 nM
CCN1CCN(c2nc(-c3cncc(CCCOC)c3)cc3ccccc23)CC1 [Example 140, 1-(1-Ethylpiperazin-4-yl)-3-[3-(3-Methoxypropyl)Pyridin-5-yl]Isoquinoline Oxalate] | 22.1 nM | 36.7 nM
CCC#Cc1ccc(-c2cc3ccccc3c(N3CCN(CC)CC3)n2)cn1 [Example 146, 1-(1-ethylpiperazin-4-yl)-3-[2-(1-butyn-1-yl)pyridin-5-yl]isoquinoline] | 170 nM | 2.9 nM
CCN1CCN(c2nc(-c3ccc(N4CC[S+]([O-])CC4)nc3)cc3ccccc23)CC1 [Example 151, 1-(4-ethylpiperazin-1-yl)-3-[2-(S-oxythiomorpholin-4-yl)pyridin-5-yl]isoquinoline trihydrochloride] | 7 nM | 79.2 nM
